molecular target: T1, Human CaV2.2 channels (Homo sapiens, UniProt Q00975); experiment: Fluorescent assay for CaV2.2 channels using potassium depolarization to induce channel opening (FLIPR, Fluo-4); type: cell-based; conditions: 3 μM test compound, 30 mM KCl, HEK293 cells stably expressing human CaV2.2; read-out: %-Inhib (CaV2.2) @3 μM @30 mM KCl
T1 construct: expressed in transfected cells
In short: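 HEK293 cells stably co-expressing CaV2.2 with α2δ and β subunits plus Kir2.3 were Fluo-4 loaded, then preincubated 15 min at 25 °C with compound in 30 mM KCl buffer, pH 7.4. Depolarization was by adding buffer containing 210 mM KCl. Inhibition was taken from baseline-normalized peak fluorescence amplitude (ex 480/em 535 nm).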

T1 sequence (Q00975 whole entry): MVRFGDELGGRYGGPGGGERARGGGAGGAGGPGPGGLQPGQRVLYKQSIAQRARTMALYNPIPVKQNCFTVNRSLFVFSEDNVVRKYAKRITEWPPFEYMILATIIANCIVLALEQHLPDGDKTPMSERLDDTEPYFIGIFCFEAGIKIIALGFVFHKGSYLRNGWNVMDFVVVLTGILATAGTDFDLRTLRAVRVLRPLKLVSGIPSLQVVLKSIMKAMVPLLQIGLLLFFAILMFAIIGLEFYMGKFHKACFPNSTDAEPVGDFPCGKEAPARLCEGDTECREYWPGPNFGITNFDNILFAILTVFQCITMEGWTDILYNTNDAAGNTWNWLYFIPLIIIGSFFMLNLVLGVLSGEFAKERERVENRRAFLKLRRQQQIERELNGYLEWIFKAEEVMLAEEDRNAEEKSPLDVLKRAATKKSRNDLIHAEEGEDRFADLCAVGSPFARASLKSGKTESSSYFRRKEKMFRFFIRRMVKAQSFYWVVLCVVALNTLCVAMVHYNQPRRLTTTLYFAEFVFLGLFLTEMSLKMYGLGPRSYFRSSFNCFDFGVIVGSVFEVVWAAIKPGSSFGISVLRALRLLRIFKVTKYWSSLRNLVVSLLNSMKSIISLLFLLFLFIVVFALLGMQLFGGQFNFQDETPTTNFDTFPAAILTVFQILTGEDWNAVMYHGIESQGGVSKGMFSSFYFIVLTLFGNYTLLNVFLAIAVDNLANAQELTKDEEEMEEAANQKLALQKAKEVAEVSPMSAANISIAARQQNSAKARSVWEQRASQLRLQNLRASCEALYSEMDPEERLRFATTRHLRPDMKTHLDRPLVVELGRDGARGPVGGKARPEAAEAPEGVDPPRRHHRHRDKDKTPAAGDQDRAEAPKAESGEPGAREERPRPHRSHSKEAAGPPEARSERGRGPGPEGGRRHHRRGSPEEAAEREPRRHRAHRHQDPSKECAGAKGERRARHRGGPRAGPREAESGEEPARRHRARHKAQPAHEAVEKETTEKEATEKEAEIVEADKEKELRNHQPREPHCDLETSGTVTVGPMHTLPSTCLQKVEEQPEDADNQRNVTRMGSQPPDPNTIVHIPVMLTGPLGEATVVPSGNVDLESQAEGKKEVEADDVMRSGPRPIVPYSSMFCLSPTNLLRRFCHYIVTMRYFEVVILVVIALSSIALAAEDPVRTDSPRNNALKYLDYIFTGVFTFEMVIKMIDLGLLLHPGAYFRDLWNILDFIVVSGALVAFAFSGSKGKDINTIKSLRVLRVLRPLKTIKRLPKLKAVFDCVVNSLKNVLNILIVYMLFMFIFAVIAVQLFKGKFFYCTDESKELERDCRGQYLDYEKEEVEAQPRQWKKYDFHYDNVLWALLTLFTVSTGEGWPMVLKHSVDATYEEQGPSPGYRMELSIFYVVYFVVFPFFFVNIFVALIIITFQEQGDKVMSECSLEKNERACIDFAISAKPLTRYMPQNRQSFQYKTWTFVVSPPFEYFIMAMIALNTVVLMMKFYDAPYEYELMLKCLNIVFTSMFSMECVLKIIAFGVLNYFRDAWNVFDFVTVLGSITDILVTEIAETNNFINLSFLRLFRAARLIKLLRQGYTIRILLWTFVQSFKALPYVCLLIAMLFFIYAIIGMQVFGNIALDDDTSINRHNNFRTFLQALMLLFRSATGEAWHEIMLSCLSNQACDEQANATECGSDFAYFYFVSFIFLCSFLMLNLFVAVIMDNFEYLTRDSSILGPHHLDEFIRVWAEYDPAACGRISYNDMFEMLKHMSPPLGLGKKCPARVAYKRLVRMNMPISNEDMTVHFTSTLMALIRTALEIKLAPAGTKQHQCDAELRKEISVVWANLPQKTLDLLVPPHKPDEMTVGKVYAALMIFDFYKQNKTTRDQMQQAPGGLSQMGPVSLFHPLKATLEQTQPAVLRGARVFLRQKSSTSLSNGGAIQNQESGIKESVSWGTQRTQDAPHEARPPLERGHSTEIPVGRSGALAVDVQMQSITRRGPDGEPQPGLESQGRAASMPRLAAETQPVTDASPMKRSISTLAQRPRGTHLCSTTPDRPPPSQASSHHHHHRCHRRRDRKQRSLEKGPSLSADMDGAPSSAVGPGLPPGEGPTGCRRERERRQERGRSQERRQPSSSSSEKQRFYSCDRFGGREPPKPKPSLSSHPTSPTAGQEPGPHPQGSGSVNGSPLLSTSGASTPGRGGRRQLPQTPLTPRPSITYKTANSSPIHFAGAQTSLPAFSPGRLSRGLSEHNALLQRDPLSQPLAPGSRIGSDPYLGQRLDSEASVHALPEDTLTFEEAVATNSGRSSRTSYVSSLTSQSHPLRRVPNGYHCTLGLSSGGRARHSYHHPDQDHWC
T1 sequence (P54289 25-1103, further chain): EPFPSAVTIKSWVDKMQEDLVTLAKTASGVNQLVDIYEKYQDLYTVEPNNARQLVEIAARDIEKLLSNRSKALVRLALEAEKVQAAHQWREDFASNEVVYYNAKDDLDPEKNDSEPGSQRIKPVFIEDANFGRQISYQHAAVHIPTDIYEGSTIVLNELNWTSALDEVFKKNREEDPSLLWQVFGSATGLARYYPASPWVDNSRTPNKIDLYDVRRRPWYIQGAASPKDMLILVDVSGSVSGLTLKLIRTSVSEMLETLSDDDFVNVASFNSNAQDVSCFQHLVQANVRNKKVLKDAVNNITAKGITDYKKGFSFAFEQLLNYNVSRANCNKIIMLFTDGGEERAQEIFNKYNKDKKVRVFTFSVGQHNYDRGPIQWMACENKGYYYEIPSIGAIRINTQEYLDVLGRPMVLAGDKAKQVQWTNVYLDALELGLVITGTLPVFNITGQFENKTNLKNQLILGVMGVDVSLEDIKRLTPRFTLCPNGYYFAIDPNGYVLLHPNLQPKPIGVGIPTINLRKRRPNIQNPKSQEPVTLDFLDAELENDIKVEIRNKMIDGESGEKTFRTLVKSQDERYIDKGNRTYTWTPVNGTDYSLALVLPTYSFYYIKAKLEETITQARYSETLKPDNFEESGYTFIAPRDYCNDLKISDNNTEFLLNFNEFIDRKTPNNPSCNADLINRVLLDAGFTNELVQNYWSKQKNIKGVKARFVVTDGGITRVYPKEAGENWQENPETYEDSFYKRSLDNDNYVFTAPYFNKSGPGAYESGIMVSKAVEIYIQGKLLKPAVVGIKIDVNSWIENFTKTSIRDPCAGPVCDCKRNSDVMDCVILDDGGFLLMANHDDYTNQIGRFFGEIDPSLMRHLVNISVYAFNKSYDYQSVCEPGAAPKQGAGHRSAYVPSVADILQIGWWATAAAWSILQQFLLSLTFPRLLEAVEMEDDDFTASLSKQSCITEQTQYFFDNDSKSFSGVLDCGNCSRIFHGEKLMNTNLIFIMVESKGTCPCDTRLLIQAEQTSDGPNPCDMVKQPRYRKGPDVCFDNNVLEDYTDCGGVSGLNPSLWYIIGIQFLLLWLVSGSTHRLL
T1 sequence (P54284 whole entry, further chain): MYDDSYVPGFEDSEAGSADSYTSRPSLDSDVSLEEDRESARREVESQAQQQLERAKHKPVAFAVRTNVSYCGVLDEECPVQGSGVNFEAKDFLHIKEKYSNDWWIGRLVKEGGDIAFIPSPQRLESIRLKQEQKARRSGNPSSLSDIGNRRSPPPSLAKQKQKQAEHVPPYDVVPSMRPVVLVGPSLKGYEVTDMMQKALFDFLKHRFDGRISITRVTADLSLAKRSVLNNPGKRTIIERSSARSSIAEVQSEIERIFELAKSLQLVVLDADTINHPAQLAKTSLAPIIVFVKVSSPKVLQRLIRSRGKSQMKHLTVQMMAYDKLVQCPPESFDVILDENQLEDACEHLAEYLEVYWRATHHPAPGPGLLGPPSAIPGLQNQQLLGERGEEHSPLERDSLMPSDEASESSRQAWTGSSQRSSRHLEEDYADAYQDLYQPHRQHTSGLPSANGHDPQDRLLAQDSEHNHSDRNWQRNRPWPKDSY

Compound	inhibition at 3 µM [%]
Cc1cnc(CN(C)C(=O)c2c(-c3ccc(Cl)cc3)cc(C(F)(F)F)n2Cc2ccccc2)cn1 [SC-215, 1-Benzyl-3-(4-chlorophenyl)-N-methyl-N-[(5-methyl-pyrazin-2-yl)-methyl]-5-(trifluoromethyl)-1H-pyrrole-2-carboxylic acid amide]	> 95
CN(CC(C)(C)C)C(=O)c1c(-c2ccc(Cl)cc2F)cc(C(F)(F)F)n1Cc1ccccc1 [SC-88, 1-Benzyl-3-(4-chloro-2-fluoro-phenyl)-N-(2,2-dimethyl-propyl)-N-methyl-5-(trifluoromethyl)-1H-pyrrole-2-carboxylic acid amide]	75 to 95
CN(CCS(C)(=O)=O)C(=O)c1c(-c2ccc(Cl)cc2F)cc(C(F)(F)F)n1Cc1ccccc1 [SC-90, 1-Benzyl-3-(4-chloro-2-fluoro-phenyl)-N-methyl-N-(2-methylsulfonyl-ethyl)-5-(trifluoromethyl)-1H-pyrrole-2-carboxylic acid amide]	> 95
Cc1c(-c2ccc(F)c(Cl)c2)c(C(=O)N2CC(F)(F)C2)n(Cc2ccccc2)c1C(F)(F)F [SC-99, [1-Benzyl-3-(3-chloro-4-fluoro-phenyl)-4-methyl-5-(trifluoromethyl)-1H-pyrrol-2-yl]-(3,3-difluoro-azetidin-1-yl)-methanone]	40 to 75
Cc1c(-c2ccc(C(F)(F)F)cc2)c(C(=O)N2CC(O)C2)n(Cc2ccccc2)c1C(F)(F)F [SC-232, [1-Benzyl-4-methyl-5-(trifluoromethyl)-3-[4-(trifluoromethyl)-phenyl]-1H-pyrrol-2-yl]-(3-hydroxy-azetidin-1-yl)-methanone]	40 to 75
CN(C(=O)c1c(-c2ccc(Cl)cc2)cc(C(F)(F)F)n1Cc1ccccc1)C(C)(C)C [SC-77, 1-Benzyl-N-tert-butyl-3-(4-chlorophenyl)-N-methyl-5-(trifluoromethyl)-1H-pyrrole-2-carboxylic acid amide]	75 to 95
Cc1c(-c2ccc(Cl)cc2)c(C(=O)N(C)C2(CO)CC2)n(Cc2ccccc2)c1C(F)(F)F [SC-48, 1-Benzyl-3-(4-chlorophenyl)-N-[1-(hydroxymethyl)-cyclopropyl]-N,4-dimethyl-5-(trifluoromethyl)-1H-pyrrole-2-carboxylic acid amide]	> 95
Cc1c(-c2ccc(Cl)cc2)c(C(=O)NC2CC2)n(Cc2ccccc2)c1C(F)(F)F [SC-35, 1-Benzyl-3-(4-chlorophenyl)-N-cyclopropyl-4-methyl-5-(trifluoromethyl)-1H-pyrrole-2-carboxylic acid amide]	75 to 95
Cc1c(-c2ccc(Cl)cc2)c(C(=O)N(C)C(C)(C)CO)n(Cc2ccccc2)c1C(F)(F)F [SC-126, 1-Benzyl-3-(4-chlorophenyl)-N-(2-hydroxy-1,1-dimethyl-ethyl)-N,4-dimethyl-5-(trifluoromethyl)-1H-pyrrole-2-carboxylic acid amide]	> 95
Cc1c(-c2ccc(Cl)cc2F)c(C(=O)NC2CC2)n(Cc2ccccc2)c1C(F)(F)F [SC-172, 1-Benzyl-3-(4-chloro-2-fluoro-phenyl)-N-cyclopropyl-4-methyl-5-(trifluoromethyl)-1H-pyrrole-2-carboxylic acid amide]	75 to 95
Cc1c(-c2ccc(F)c(Cl)c2)c(C(=O)N(C)C(C)(C)CO)n(Cc2ccccc2)c1C(F)(F)F [SC-257, 1-Benzyl-3-(3-chloro-4-fluoro-phenyl)-N-(2-hydroxy-1,1-dimethyl-ethyl)-N,4-dimethyl-5-(trifluoromethyl)-1H-pyrrole-2-carboxylic acid amide]	75 to 95
CCc1c(-c2ccc(Cl)cc2)c(C(=O)N(C)CC(C)(C)C)n(Cc2ccccc2)c1C(F)(F)F [SC-119, 1-Benzyl-3-(4-chlorophenyl)-N-(2,2-dimethyl-propyl)-4-ethyl-N-methyl-5-(trifluoromethyl)-1H-pyrrole-2-carboxylic acid amide]	75 to 95
CN(C)C(=O)c1c(-c2ccc(Cl)cc2)cc(C(F)(F)F)n1Cc1ccccc1 [SC-80, 1-Benzyl-3-(4-chlorophenyl)-N,N-dimethyl-5-(trifluoromethyl)-1H-pyrrole-2-carboxylic acid amide]	75 to 95
Cc1c(-c2ccc(Cl)cc2F)c(C(=O)N[C@H](C)C(C)(C)C)n(Cc2ccccc2)c1C(F)(F)F [SC-158, 1-Benzyl-3-(4-chloro-2-fluoro-phenyl)-4-methyl-5-(trifluoromethyl)-N-[(1R)-1,2,2-trimethyl-propyl]-1H-pyrrole-2-carboxylic acid amide]	75 to 95
Cc1c(-c2ccc(Cl)cc2)c(C(=O)N(C)CC2CCC[C@@H]2O)n(Cc2ccccc2)c1C(F)(F)F (stereo partly drawn) [SC-135, 1-Benzyl-3-(4-chlorophenyl)-N-[[(2S)-2-hydroxy-cyclopentyl]-methyl]-N,4-dimethyl-5-(trifluoromethyl)-1H-pyrrole-2-carboxylic acid amide]	> 95
Cc1c(-c2ccc(Cl)cc2)c(C(=O)N2CCC(S(C)(=O)=O)C2)n(Cc2ccccc2)c1C(F)(F)F (stereo not drawn) [SC-123, [1-Benzyl-3-(4-chlorophenyl)-4-methyl-5-(trifluoromethyl)-1H-pyrrol-2-yl]-(3-methylsulfonyl-pyrrolidin-1-yl)-methanone]	> 95
O=C(c1c(-c2ccc(Cl)cc2)cc(C(F)(F)F)n1Cc1ccccc1)N1CCS(=O)(=O)CC1 [SC-196, [1-Benzyl-3-(4-chlorophenyl)-5-(trifluoromethyl)-1H-pyrrol-2-yl]-(1,1-dioxo-[1,4]thiazinan-4-yl)-methanone]	> 95
CNC(=O)c1c(-c2ccc(Cl)cc2)c(C)c(C(F)(F)F)n1Cc1ccccc1 [SC-22, 1-Benzyl-3-(4-chlorophenyl)-N,4-dimethyl-5-(trifluoromethyl)-1H-pyrrole-2-carboxylic acid amide]	75 to 95
CN(CCC1CCCO1)C(=O)c1c(-c2ccc(Cl)cc2)cc(C(F)(F)F)n1Cc1ccccc1 (stereo not drawn) [SC-195, 1-Benzyl-3-(4-chlorophenyl)-N-methyl-N-(2-tetrahydro-furan-2-yl-ethyl)-5-(trifluoromethyl)-1H-pyrrole-2-carboxylic acid amide]	> 95
COC1(CNC(=O)c2c(-c3ccc(Cl)cc3)c(C)c(C(F)(F)F)n2Cc2ccccc2)CC1 [SC-36, 1-Benzyl-3-(4-chlorophenyl)-N-[(1-methoxy-cyclopropyl)-methyl]-4-methyl-5-(trifluoromethyl)-1H-pyrrole-2-carboxylic acid amide]	> 95
Cc1c(-c2ccc(Cl)cc2)c(C(=O)N(C)CCS(C)(=O)=O)n(Cc2cccc(Cl)c2)c1C(F)(F)F [SC-56, 3-(4-Chlorophenyl)-1-[(3-chlorophenyl)-methyl]-N,4-dimethyl-N-(2-methylsulfonyl-ethyl)-5-(trifluoromethyl)-1H-pyrrole-2-carboxylic acid amide]	> 95
CC(=O)N1CCN(C(=O)c2c(-c3ccc(Cl)cc3)cc(C(F)(F)F)n2Cc2ccccc2)CC1 [SC-209, 1-[4-[1-Benzyl-3-(4-chlorophenyl)-5-(trifluoromethyl)-1H-pyrrole-2-carbonyl]-piperazin-1-yl]-ethanone]	> 95
CN(Cc1cnccn1)C(=O)c1c(-c2ccc(Cl)cc2)cc(C(F)(F)F)n1Cc1ccccc1 [SC-210, 1-Benzyl-3-(4-chlorophenyl)-N-methyl-N-(pyrazin-2-yl-methyl)-5-(trifluoromethyl)-1H-pyrrole-2-carboxylic acid amide]	75 to 95
CN(CC(C)(C)C)C(=O)c1c(-c2ccc(Cl)cc2)cc(C(F)(F)F)n1Cc1ccccc1 [SC-02, 1-Benzyl-3-(4-chlorophenyl)-N-(2,2-dimethyl-propyl)-N-methyl-5-(trifluoromethyl)-1H-pyrrole-2-carboxylic acid amide]	75 to 95
Cc1c(-c2ccc(Cl)c(F)c2)c(C(=O)N(C)C2CCOCC2)n(Cc2ccccc2)c1C(F)(F)F [SC-245, 1-Benzyl-3-(4-chloro-3-fluoro-phenyl)-N,4-dimethyl-N-tetrahydro-pyran-4-yl-5-(trifluoromethyl)-1H-pyrrole-2-carboxylic acid amide]	> 95
Cc1c(-c2ccc(Cl)cc2F)c(C(=O)N(C)C2CCS(=O)(=O)CC2)n(Cc2ccccc2)c1C(F)(F)F [SC-160, 1-Benzyl-3-(4-chloro-2-fluoro-phenyl)-N-(1,1-dioxo-thian-4-yl)-N,4-dimethyl-5-(trifluoromethyl)-1H-pyrrole-2-carboxylic acid amide]	> 95
CN(C(=O)c1c(-c2ccc(Cl)cc2)cc(C(F)(F)F)n1Cc1ccccc1)C(CO)C(C)(C)C (stereo not drawn) [SC-186, 1-Benzyl-3-(4-chlorophenyl)-N-[1-(hydroxymethyl)-2,2-dimethyl-propyl]-N-methyl-5-(trifluoromethyl)-1H-pyrrole-2-carboxylic acid amide]	> 95
Cc1c(-c2ccc(C#N)cc2F)c(C(=O)N2CCOCC2)n(Cc2ccccc2)c1C(F)(F)F [SC-264, 4-[1-Benzyl-4-methyl-2-(morpholine-4-carbonyl)-5-(trifluoromethyl)-1H-pyrrol-3-yl]-3-fluoro-benzonitrile]	75 to 95
Cc1c(-c2ccc(OC(F)(F)F)cc2)c(C(=O)N(C)C(C)(C)CO)n(Cc2ccccc2)c1C(F)(F)F [SC-241, 1-Benzyl-N-(2-hydroxy-1,1-dimethyl-ethyl)-N,4-dimethyl-5-(trifluoromethyl)-3-[4-(trifluoromethyloxy)-phenyl]-1H-pyrrole-2-carboxylic acid amide]	> 95
CN(CC(C)(C)N1CCOCC1)C(=O)c1c(-c2ccc(Cl)cc2)cc(C(F)(F)F)n1Cc1ccccc1 [SC-85, 1-Benzyl-3-(4-chlorophenyl)-N-methyl-N-(2-methyl-2-morpholin-4-yl-propyl)-5-(trifluoromethyl)-1H-pyrrole-2-carboxylic acid amide]	> 95

From US9302988B2, “Fluoromethyl-substituted pyrrole carboxamides” (GRÜNENTHAL GMBH, priority 2012, dated 2016)
